# Source: US11028079B2 (ConverGene LLC, priority 2015, dated 2021)
# Biological target: T1, BRD4 bromodomains (Homo sapiens, UniProt O60885)
# T1 construct: fused on or other part: T7 phage capsid protein (phage-display fusion; the phage DNA is read out by qPCR)
# Assay: BROMOscan bromodomain competition binding assay (DiscoveRx)
# Details: Kd from 11 compound concentrations ranging from 0 to 10 μM, read-out: BROMOscan Relative Activity
# Description: Bromodomain assays were conducted to measure interactions between certain compounds and bromodomains.
# The assays were conducted according to BROMOscan protocol from Discover Rx. Briefly, BRD4 bromodomains expressed as a fusion capsid protein of T7 phage were bound to acetylated peptide ligand on a solid phase and competition bindings were performed. T7 phage strains displaying bromodomains were grown in parallel in 24-well blocks in an E. coli host derived from the BL21 strain. E. coli were grown to log-phase and infected with T7 phage from a frozen stock (multiplicity of infection=0.4) and incubated with shaking at 32° C. until lysis (90-150 minutes). The lysates were centrifuged (5,000×g) and filtered (0.2 μm) to remove cell debris. […] The liganded beads were blocked with excess biotin and washed with blocking buffer (SeaBlock (Pierce), 1% BSA, 0.05% Tween 20, 1 mM DTT) to remove unbound ligand and to reduce non-specific phage binding. […] Test compounds were prepared as 1000× stocks in 100% DMSO and subsequently diluted 1:10 in monoethylene glycol (MEG) to create stocks at 100× the screening concentration (resulting stock solution is 10% DMSO/90% MEG). The compounds were then diluted directly into the assays such that the final concentration of DMSO and MEG were 0.1% and 0.9%, respectively. All reactions were performed in polystyrene 96-well plates in a final volume of 0.135 ml. […] The bromodomain concentration in the eluates was measured by qPCR. Data was collected at 11 compound concentrations ranging from 0 to 10 μM. Kd values were then derived from a standard dose-response curve generated with Hill equation (Hill Slope was set to ˜1) and a non-linear least square fit with the Levenberg-Marquardt algorithm. Response=Background+Signal−Background/1+(Kd Hill Slope/Dose Hill Slope)
row,SMILES,Kd [nM]
1,"Cc1noc(C)c1-c1ccc2ncnc(N3CCC(C(=O)O)CC3)c2c1 [Example 261, 1-(6-(3,5-dimethylisoxazol-4-yl)quinazolin-4-yl)piperidine-4-carboxylic Acid]",500 to 5000
2,"Cc1noc(C)c1-c1ccc2c(NCc3cccc(Cl)c3)nc(N3CCN(CCO)CC3)nc2c1 [Example 40, 2-(4-(4-((3-chlorobenzyl)amino)-7-(3,5-dimethylisoxazol-4-yl)quinazolin-2-yl)piperazin-1-yl)ethanol]",500 to 5000
3,"CN(C)CCN1CCN(c2nc(NCc3cccc(Cl)c3)c3cc(-c4cn[nH]c4)ccc3n2)CC1 [Example 64, N-(3-chlorobenzyl)-2-(4-(2-(dimethylamino)ethyl)piperazin-1-yl)-6-(1H-pyrazol-4-yl)quinazolin-4-amine]",> 5000
4,"Cc1noc(C)c1-c1ccc2nc(N3CCc4[nH]ncc4C3)nc(NCc3cccc(Cl)c3)c2c1 [Example 290, N-(3-chlorobenzyl)-6-(3,5-dimethylisoxazol-4-yl)-2-(1,4,6,7-tetrahydro-5H-pyrazolo[4,3-c]pyridin-5-yl)quinazolin-4-amine]",500 to 5000
5,"Cc1noc(C)c1-c1ccc2nc(C(=O)N3CCc4c(cnn4C)C3)nc(N3CCOC[C@@H]3c3ccccc3)c2c1 [Example 276, (S)-(6-(3,5-dimethylisoxazol-4-yl)-4-(3-phenylmorpholino)quinazolin-2-yl)(1-methyl-1,4,6,7-tetrahydro-5H-pyrazolo[4,3-c]pyridin-5-yl)methanone]",500 to 5000
6,"Cc1noc(C)c1-c1ccc2nc(C(=O)N3CCC4(CC3)CC(O)C4)nc(N3CCOC[C@@H]3c3ccccc3)c2c1 [Example 316, (S)-(6-(3,5-dimethylisoxazol-4-yl)-4-(3-phenylmorpholino)quinazolin-2-yl)(2-hydroxy-7-azaspiro[3.5]nonan-7-yl)methanone]",500 to 5000
7,"Cc1cc(NC(=O)c2nc(NCc3cccc(Cl)c3)c3cc(-c4c(C)noc4C)ccc3n2)ccn1 [Example 218, 4-((3-chlorobenzyl)amino)-6-(3,5-dimethylisoxazol-4-yl)-N-(2-methylpyridin-4-yl)quinazoline-2-carboxamide]",500 to 5000
8,"Cc1noc(C)c1-c1ccc2nc(C(=O)N3CCN(CCN(C)C)CC3)nc(NCc3cccc(Cl)c3)c2c1 [Example 165, (4-((3-chlorobenzyl)amino)-6-(3,5-dimethylisoxazol-4-yl)quinazolin-2-yl)(4-(2-(dimethylamino)ethyl)piperazin-1-yl)methanone]",500 to 5000
9,"Cc1noc(C)c1-c1ccc2nc(N3CCN(CCN(C)C)CC3)nc(Nc3ccc(Cl)cc3)c2c1 [Example 162, N-(4-chlorophenyl)-2-(4-(2-(dimethylamino)ethyl)piperazin-1-yl)-6-(3,5-dimethylisoxazol-4-yl)quinazolin-4-amine]",500 to 5000
10,"Cc1noc(C)c1-c1ccc2nc(N3CCc4c(cnn4C)C3)nc(NCc3cccc(Cl)c3)c2c1 [Example 278, N-(3-chlorobenzyl)-6-(3,5-dimethylisoxazol-4-yl)-2-(1-methyl-1,4,6,7-tetrahydro-5H-pyrazolo[4,3-c]pyridin-5-yl)quinazolin-4-amine]",500 to 5000

# Results, then the molecule that gave them:
row,Kd [nM],SMILES
1,< 500,"Cc1noc(C)c1-c1ccc2nc(N3CCC4(CCN(C)C4=O)CC3)nc(N3CCOC[C@@H]3c3ccccc3)c2c1 [Example 320, (S)-8-(6-(3,5-dimethylisoxazol-4-yl)-4-(3-phenylmorpholino)quinazolin-2-yl)-2-methyl-2,8-diazaspiro[4.5]decan-1-one]"
2,< 500,"Cc1nn(C)cc1CNC(=O)c1nc(NCc2cccc(Cl)c2)c2cc(-c3c(C)noc3C)ccc2n1 [Example 205, 4-((3-chlorobenzyl)amino)-N-((1,3-dimethyl-1H-pyrazol-4-yl)methyl)-6-(3,5-dimethylisoxazol-4-yl)quinazoline-2-carboxamide]"
3,< 500,"Cn1cc(-c2ccc3nc(-c4cnn(CC(C)(C)O)c4)nc(N4CCOC[C@@H]4c4ccccc4)c3c2)ccc1=O [Example 292, (S)-5-(2-(1-(2-hydroxy-2-methylpropyl)-1H-pyrazol-4-yl)-4-(3-phenylmorpholino)quinazolin-6-yl)-1-methylpyridin-2(1H)-one]"
4,< 500,"Cc1nc(NCc2cccc(Cl)c2)c2cc(-c3c(C)noc3C)ccc2n1 [Example 9, N-(3-chlorobenzyl)-6-(3,5-dimethylisoxazol-4-yl)-2-methylquinazolin-4-amine]"
5,< 500,"Cc1noc(C)c1-c1ccc2nc(-c3cnn(C4COC4)c3)nc(NCc3cccc(Cl)c3)c2c1 [Example 61, N-(3-chlorobenzyl)-6-(3,5-dimethylisoxazol-4-yl)-2-(1-(oxetan-3-yl)-1H-pyrazol-4-yl)quinazolin-4-amine]"
6,< 500,"Cc1noc(C)c1-c1ccc2nc(N3CCC(CCN(C)C)CC3)nc(NCc3cccc(Cl)c3)c2c1 [Example 34, N-(3-chlorobenzyl)-2-(4-(2-(dimethylamino)ethyl)piperidin-1-yl)-6-(3,5-dimethylisoxazol-4-yl)quinazolin-4-amine]"
7,< 500,"Cc1noc(C)c1-c1ccc2nc(C(=O)NC3CCOCC3)nc(NCc3cccc(Cl)c3)c2c1 [Example 226, 4-((3-chlorobenzyl)amino)-6-(3,5-dimethylisoxazol-4-yl)-N-(tetrahydro-2H-pyran-4-yl)quinazoline-2-carboxamide]"
8,< 500,"CC(=O)N1CCN(c2nc(NC3(c4cccc(Cl)c4)CC3)c3cc(-c4c(C)noc4C)ccc3n2)CC1 [Example 185, 1-(4-(4-((1-(3-chlorophenyl)cyclopropyl)amino)-6-(3,5-dimethylisoxazol-4-yl)quinazolin-2-yl)piperazin-1-yl)ethanone]"
9,< 500,"Cc1noc(C)c1-c1ccc2nc(-c3cnn(CCN4CCOCC4)c3)nc(NCc3cccc(Cl)c3)c2c1 [Example 28, N-(3-chlorobenzyl)-6-(3,5-dimethylisoxazol-4-yl)-2-(1-(2-morpholinoethyl)-1H-pyrazol-4-yl)quinazolin-4-amine]"
10,< 500,"Cc1noc(C)c1-c1ccc2nc(-n3cc(CCO)cn3)nc(NCc3cccc(Cl)c3)c2c1 [Example 42, 2-(1-(4-((3-chlorobenzyl)amino)-6-(3,5-dimethylisoxazol-4-yl)quinazolin-2-yl)-1H-pyrazol-4-yl)ethanol]"
11,< 500,"Cc1noc(C)c1-c1ccc2nc(C(=O)NC3CN(C)C3)nc(NCc3cncc(Cl)c3)c2c1 [Example 237, 4-(((5-chloropyridin-3-yl)methyl)amino)-6-(3,5-dimethylisoxazol-4-yl)-N-(1-methylazetidin-3-yl)quinazoline-2-carboxamide]"
12,< 500,"Cn1cc(-c2ccc3nc(-c4cnn(CC(N)=O)c4)nc(NCc4cccc(Cl)c4)c3c2)ccc1=O [Example 101, 2-(4-(4-((3-chlorobenzyl)amino)-6-(1-methyl-6-oxo-1,6-dihydropyridin-3-yl)quinazolin-2-yl)-1H-pyrazol-1-yl)acetamide]"
13,< 500,"Cc1ccc(CNC(=O)c2nc(NCc3cccc(Cl)c3)c3cc(-c4c(C)noc4C)ccc3n2)cn1 [Example 197, 4-((3-chlorobenzyl)amino)-6-(3,5-dimethylisoxazol-4-yl)-N-((6-methylpyridin-3-yl)methyl)quinazoline-2-carboxamide]"
14,< 500,"Cc1noc(C)c1-c1ccc2nc(C(=O)NCc3ccnc(Cl)c3)nc(NCc3cncc(Cl)c3)c2c1 [Example 206, 4-(((5-chloropyridin-3-yl)methyl)amino)-N-((2-chloropyridin-4-yl)methyl)-6-(3,5-dimethylisoxazol-4-yl)quinazoline-2-carboxamide]"
